According to paper PMC12051030, “Identification of inhibitors of the Salmonella FraB deglycase, a drug target” (FEBS Open Bio, 2025):
Where two headings read alike, the source gives them in different places.

Biological target: His6‐FraB (Salmonella FraB deglycase) (Salmonella enterica subsp. enterica serovar Typhimurium, UniProt Q8ZLD0)
Assay: FraB-G6PD coupled assay, Michaelis–Menten analysis for K I and mode of inhibition
Type: biochemical
In short: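 His6-FraB (100 nM) coupled to G6PD with 0.5 mM NAD+ in 25 mM HEPES pH 8.0, 5 mM MgCl2, 10% DMSO at 20 °C; 8–12 6-P-F-Asp concentrations against 3–5 inhibitor levels.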

His6‐FraB (Salmonella FraB deglycase), sequence (Q8ZLD0 entry or part of it): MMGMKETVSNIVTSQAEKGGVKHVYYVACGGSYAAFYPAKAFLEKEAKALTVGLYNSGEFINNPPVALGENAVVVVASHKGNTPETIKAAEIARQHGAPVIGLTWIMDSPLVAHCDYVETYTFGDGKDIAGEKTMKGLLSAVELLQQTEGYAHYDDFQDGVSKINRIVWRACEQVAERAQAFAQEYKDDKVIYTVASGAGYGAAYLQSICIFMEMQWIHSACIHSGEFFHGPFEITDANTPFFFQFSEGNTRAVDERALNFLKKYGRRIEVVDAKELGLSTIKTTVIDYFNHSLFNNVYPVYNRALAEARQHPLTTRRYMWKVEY

CC(C)Cc1cc(-c2nn3c(-c4ccccc4Cl)nnc3s2)n[nH]1 [3470:A09, 3‐(2‐chlorophenyl)‐6‐[5‐(2‐methylpropyl)‐1H‐pyrazol‐3‐yl]‐[1,2,4]triazolo[3,4‐b][1,3,4]thiadiazole]
change of IC50 values with increasing [S]/K m ('this trend' = IC50 does not vary with [S]/K m, change evident only from 0.2 to 1.6× [S]/K m): modest decrease
slope in plots of 1/IC50 vs. v o/V max (Fig. S12): weakly positive
IC50 (Trial 1, 6-P-F-Asp 15.7 µM, S/Km 0.37381, unit from Fig. S11 axis, read-out: IC50 (IC50 versus [S]/Km plots)): 29.3 µM
IC50 (Trial 1, 6-P-F-Asp 31.3 µM, S/Km 0.745238, unit from Fig. S11 axis, read-out: IC50 (IC50 versus [S]/Km plots)): 18.8 µM
IC50 (Trial 1, 6-P-F-Asp 62.5 µM, S/Km 1.488095, unit from Fig. S11 axis, read-out: IC50 (IC50 versus [S]/Km plots)): 20.5 µM
IC50 (Trial 1, 6-P-F-Asp 125 µM, S/Km 2.97619, unit from Fig. S11 axis, read-out: IC50 (IC50 versus [S]/Km plots)): 20.2 µM
IC50 (Trial 1, 6-P-F-Asp 250 µM, S/Km 5.952381, unit from Fig. S11 axis, read-out: IC50 (IC50 versus [S]/Km plots)): 20.6 µM
IC50 (Trial 1, 6-P-F-Asp 500 µM, S/Km 11.90476, unit from Fig. S11 axis, read-out: IC50 (IC50 versus [S]/Km plots)): 19.4 µM
IC50 (Trial 1, 6-P-F-Asp 750 µM, S/Km 17.85714, unit from Fig. S11 axis, read-out: IC50 (IC50 versus [S]/Km plots)): 19.5 µM
IC50 (Trial 1, 6-P-F-Asp 1000 µM, S/Km 23.80952, unit from Fig. S11 axis, read-out: IC50 (IC50 versus [S]/Km plots)): 21.3 µM
IC50 (Trial 1, 6-P-F-Asp 2000 µM, S/Km 47.61905, unit from Fig. S11 axis, read-out: IC50 (IC50 versus [S]/Km plots)): 22.7 µM
IC50 (Trial 1, 6-P-F-Asp 3000 µM, S/Km 71.42857, unit from Fig. S11 axis, read-out: IC50 (IC50 versus [S]/Km plots)): 23.2 µM
IC50 (Trial 2, 6-P-F-Asp 7.38 µM, S/Km 0.175714, unit from Fig. S11 axis, read-out: IC50 (IC50 versus [S]/Km plots)): 19 µM
IC50 (Trial 2, 6-P-F-Asp 15.7 µM, S/Km 0.37381, unit from Fig. S11 axis, read-out: IC50 (IC50 versus [S]/Km plots)): 13.6 µM
IC50 (Trial 2, 6-P-F-Asp 31.3 µM, S/Km 0.745238, unit from Fig. S11 axis, read-out: IC50 (IC50 versus [S]/Km plots)): 12.4 µM
IC50 (Trial 2, 6-P-F-Asp 62.5 µM, S/Km 1.488095, unit from Fig. S11 axis, read-out: IC50 (IC50 versus [S]/Km plots)): 12.6 µM
IC50 (Trial 2, 6-P-F-Asp 125 µM, S/Km 2.97619, unit from Fig. S11 axis, read-out: IC50 (IC50 versus [S]/Km plots)): 11.4 µM
IC50 (Trial 2, 6-P-F-Asp 250 µM, S/Km 5.952381, unit from Fig. S11 axis, read-out: IC50 (IC50 versus [S]/Km plots)): 11.6 µM
IC50 (Trial 2, 6-P-F-Asp 500 µM, S/Km 11.90476, unit from Fig. S11 axis, read-out: IC50 (IC50 versus [S]/Km plots)): 11 µM
IC50 (Trial 2, 6-P-F-Asp 750 µM, S/Km 17.85714, unit from Fig. S11 axis, read-out: IC50 (IC50 versus [S]/Km plots)): 10.9 µM
IC50 (Trial 2, 6-P-F-Asp 1000 µM, S/Km 23.80952, unit from Fig. S11 axis, read-out: IC50 (IC50 versus [S]/Km plots)): 11.3 µM
IC50 (Trial 2, 6-P-F-Asp 2000 µM, S/Km 47.61905, unit from Fig. S11 axis, read-out: IC50 (IC50 versus [S]/Km plots)): 11.1 µM
IC50 (Trial 2, 6-P-F-Asp 3000 µM, S/Km 71.42857, unit from Fig. S11 axis, read-out: IC50 (IC50 versus [S]/Km plots)): 15.3 µM
Ki (from Michaelis–Menten analysis of FraB at different inhibitor concentrations, average and standard error from two measurements, read-out: K I): 10.5 ± 3.5 µM
Ki (independent trial shown in Fig. S11 panels A-L, read-out: KI from α′ vs [I] plot): 7 µM
mode of inhibition (kinetic analyses (Lineweaver‐Burk, α′ vs [I], IC50 vs [S]/K m, 1/IC50 vs v o/V max)): mixed‐type uncompetitive
IC50 (single trial shown in Fig. 5, read-out: IC50, mean and standard deviation of all IC50 values in IC50 vs [S]/Km plot): 13 ± 3 µM
Ki (single trial shown in Fig. 5, read-out: KI from α′ vs [I] plot): 14 µM
